The supplement of paper PMC10307832

Legend:
Assay in all cases: relative viability (nuclei count vs DMSO), 5 days (fraction); higher = more cells survive
[1] = compound: Cc1nc(Nc2ncc(C(=O)Nc3c(C)cccc3Cl)s2)cc(N2CCN(CCO)CC2)n1 [Dasatinib] + O=C(c1cc(Cc2n[nH]c(=O)c3ccccc23)ccc1F)N1CCN(C(=O)C2CC2)CC1 [Olaparib] (partner 8 µM)
Outline: (§1)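 Lung cancer cell lines were seeded in 1536-well plates and dosed by pin tool the next day, with either a single drug or a fixed anchor-drug dose combined with five library-drug doses (not always all listed) spaced in √10 steps. Five days later, one step fixed the cells and stained their nuclei (final 0.05% Triton X-100, 1% formaldehyde, 1 ug/ml Hoechst), and nuclei were counted on 4× images. Relative viability is the nuclei count in treated wells divided by the count in vehicle wells, and each value is the median of duplicate plates.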

[2] = compound: Cc1nc(Nc2ncc(C(=O)Nc3c(C)cccc3Cl)s2)cc(N2CCN(CCO)CC2)n1 [Dasatinib] + N=C(N)NC(=N)NCCc1ccccc1 [Phenformin] (partner 250 µM)
Outline: as §1

[3] = compound: Cc1ccc(C(=O)Nc2cccc(C(F)(F)F)c2)cc1Nc1cncc(C(N)=O)c1 [ALW-II-49-7] + Cc1nc(NC(=O)N2CCC[C@H]2C(N)=O)sc1-c1ccnc(C(C)(C)C(F)(F)F)c1 [Alpelisib] (partner 2 µM)
Outline: as §1

[4] = compound: Cc1nc(Nc2ncc(C(=O)Nc3c(C)cccc3Cl)s2)cc(N2CCN(CCO)CC2)n1 [Dasatinib] + CC(C)C[C@H](NC(=O)[C@H](Cc1ccccc1)NC(=O)c1cnccn1)B(O)O [Bortezomib] (partner 0.002 µM)
Outline: as §1

| Cell Line | relative viability ([1]; first compound 0.005 µM) | relative viability ([1]; first compound 0.01581 µM) | relative viability ([1]; first compound 0.05 µM) | relative viability ([1]; first compound 0.1581 µM) | relative viability ([1]; first compound 0.5 µM) | relative viability ([2]; first compound 0.005 µM) | relative viability ([2]; first compound 0.01581 µM) | relative viability ([2]; first compound 0.05 µM) | relative viability ([2]; first compound 0.1581 µM) | relative viability ([2]; first compound 0.5 µM) | relative viability ([3]; first compound 0.08 µM) | relative viability ([3]; first compound 0.253 µM) | relative viability ([3]; first compound 0.8 µM) | relative viability ([3]; first compound 2.53 µM) | relative viability ([3]; first compound 8 µM) | relative viability ([4]; first compound 0.005 µM) | relative viability ([4]; first compound 0.01581 µM) | relative viability ([4]; first compound 0.05 µM) | relative viability ([4]; first compound 0.1581 µM) | relative viability ([4]; first compound 0.5 µM) |
| --- | --- | --- | --- | --- | --- | --- | --- | --- | --- | --- | --- | --- | --- | --- | --- | --- | --- | --- | --- | --- |
| LC-2-ad | 0.752 | 0.666 | 0.746 | 0.573 | 0.516 | 0.636 | 0.623 | 0.411 | 0.306 | 0.265 | 0.911 | 0.884 | 0.847 | 0.892 | 0.864 | 0.582 | 0.985 | 1.01 | 0.871 | 0.36 |
| LCLC-97TM1 | 0.468 | 0.449 | 0.557 | 0.393 | 0.4 | 0.451 | 0.439 | 0.45 | 0.449 | 0.168 | 0.245 | 0.245 | 0.296 | 0.195 | 0.269 | 0.525 | 0.561 | 0.735 | 0.665 | 0.461 |
| LCLC-103H | 0.74 | 0.716 | 0.718 | 0.508 | 0.356 | 0.367 | 0.3 | 0.267 | 0.298 | 0.127 | 0.933 | 0.968 | 0.993 | 1.14 | 0.972 | 0.987 | 1.06 | 1 | 0.918 | 0.613 |
| LOU-NH91 | 0.925 | 0.807 | 0.726 | 0.615 | 0.372 | 0.734 | 0.678 | 0.566 | 0.489 | 0.288 | 0.648 | 0.72 | 0.729 | 0.388 | 0.797 | 0.477 | 0.477 | 0.479 | 0.485 | 0.487 |
| LU99A | 0.283 | 0.259 | 0.265 | 0.188 | 0.166 | 0.845 | – | 0.888 | 0.752 | 0.472 | 0.491 | 0.527 | 0.481 | 0.482 | 0.532 | 1.11 | 0.973 | 1.03 | 0.812 | 0.573 |
| LXF-289 | 1.07 | 1.02 | 0.925 | 0.268 | 0.158 | 0.543 | 0.512 | 0.414 | 0.34 | 0.0987 | 1.07 | 1.01 | 1.01 | 1.17 | 1.08 | 1.03 | 1.12 | 0.93 | 0.518 | 0.204 |
| NCI-H23 | 0.359 | 0.301 | 0.307 | 0.297 | 0.282 | 0.841 | 0.752 | 0.929 | 0.655 | 0.607 | 0.692 | 0.803 | 0.613 | 0.726 | 0.985 | 0.958 | 0.812 | 0.904 | 0.677 | 0.519 |
| NCI-H322M | 0.707 | 0.575 | 0.492 | 0.322 | 0.244 | 0.604 | 0.61 | 0.443 | 0.206 | 0.195 | 0.724 | 0.739 | 0.957 | 0.759 | 0.8 | 1.28 | 1.25 | 1.32 | 0.966 | 0.177 |
| NCI-H441 | 0.532 | 0.529 | 0.519 | 0.387 | 0.309 | 0.921 | 0.912 | 0.862 | 0.547 | 0.401 | 0.854 | 0.771 | 0.768 | 0.48 | 0.591 | 0.487 | 0.613 | 0.511 | 0.734 | 0.172 |
| NCI-H460 | 0.362 | 0.383 | 0.38 | 0.247 | 0.199 | 0.47 | 0.484 | 0.443 | 0.336 | 0.314 | 0.513 | 0.542 | 0.323 | 0.453 | 0.395 | 0.97 | 0.79 | 0.701 | 0.736 | 0.49 |
| NCI-H520 | 0.335 | 0.244 | 0.237 | 0.127 | 0.16 | 0.481 | 0.339 | 0.255 | 0.181 | 0.179 | 0.799 | 0.865 | – | 0.964 | 0.954 | 0.588 | 0.22 | 0.358 | 0.146 | 0.178 |
| NCI-H596 | 0.685 | 0.575 | 0.525 | 0.517 | 0.466 | 0.728 | 0.52 | 0.712 | 0.44 | 0.402 | 0.443 | 0.513 | 0.497 | 0.469 | 0.438 | 0.928 | 0.815 | 0.826 | 0.525 | 0.515 |
| NCI-H647 | 0.428 | 0.301 | 0.217 | 0.139 | 0.116 | 0.465 | 0.366 | 0.257 | 0.197 | 0.141 | 0.769 | 1.13 | 1.19 | 0.882 | 0.557 | 0.547 | 0.593 | 0.447 | 0.257 | 0.189 |
| NCI-H650 | 0.395 | 0.357 | 0.415 | 0.392 | 0.263 | 0.496 | 0.438 | 0.433 | 0.375 | 0.317 | 1.14 | 1.08 | 1.13 | 0.353 | 0.669 | 0.867 | 0.939 | 0.73 | 0.559 | 0.451 |
| NCI-H661 | 0.731 | 0.792 | 0.747 | 0.618 | 0.592 | 0.266 | 0.222 | 0.249 | 0.226 | 0.243 | 0.665 | 0.691 | 0.645 | – | 0.522 | 0.62 | 0.415 | 0.557 | 0.319 | 0.24 |
| NCI-H727 | 0.74 | 0.603 | 0.654 | 0.618 | 0.288 | 0.399 | 0.461 | 0.375 | 0.262 | 0.235 | 0.716 | 0.572 | 0.538 | 0.678 | 0.541 | 0.606 | 0.663 | 0.554 | 0.463 | 0.258 |
| NCI-H838 | 0.622 | 0.453 | 0.403 | 0.229 | 0.179 | 0.481 | 0.387 | 0.302 | 0.204 | 0.176 | 0.847 | 1.13 | 1 | 1.13 | 0.987 | 0.747 | 0.395 | 0.445 | 0.198 | 0.202 |
| NCI-H1355 | 0.747 | 0.541 | 0.73 | 0.582 | 0.442 | 0.435 | 0.391 | 0.432 | 0.352 | 0.325 | 0.696 | 0.867 | 0.832 | 0.679 | 0.645 | 1.12 | 1.11 | 1.06 | 0.981 | 0.779 |
| NCI-H1437 | 0.636 | 0.624 | 0.656 | 0.566 | 0.532 | 0.322 | 0.207 | 0.261 | 0.222 | 0.148 | 0.949 | 1.01 | – | 0.901 | 0.959 | 0.509 | 0.363 | 0.469 | 0.487 | 0.138 |
| NCI-H1651 | 0.178 | 0.175 | 0.174 | 0.17 | 0.16 | 0.355 | 0.285 | 0.308 | 0.35 | 0.241 | 1.01 | 0.832 | 0.746 | 0.919 | 0.835 | 0.947 | 0.873 | 0.795 | 0.859 | 0.825 |
| NCI-H1666 | 0.756 | 0.752 | 0.73 | 0.782 | 0.676 | 0.517 | 0.26 | 0.548 | 0.498 | 0.451 | 1.05 | 1.07 | 0.853 | 0.951 | 0.868 | 0.763 | 0.663 | 0.718 | 0.582 | 0.288 |
| NCI-H1734 | 0.601 | 0.479 | 0.509 | 0.367 | 0.196 | 0.314 | 0.328 | 0.288 | 0.249 | 0.235 | 0.645 | 0.774 | 0.657 | 0.694 | 0.577 | 0.754 | 0.508 | 0.79 | 0.425 | 0.561 |
| NCI-H1755 | 0.806 | 0.577 | 0.68 | 0.408 | 0.279 | 0.477 | 0.46 | 0.423 | 0.352 | 0.218 | 0.931 | 0.965 | 0.909 | 0.807 | 0.818 | 0.842 | 0.759 | 0.645 | 0.538 | 0.297 |
| NCI-H1792 | 0.385 | 0.348 | 0.411 | 0.2 | 0.0885 | 0.198 | 0.394 | 0.415 | 0.135 | 0.0671 | 0.512 | 0.459 | 0.586 | 0.504 | 0.473 | 0.932 | 0.897 | 0.898 | 0.681 | 0.505 |
| NCI-H1915 | 0.267 | 0.231 | 0.235 | 0.151 | 0.149 | 0.339 | 0.313 | 0.266 | 0.17 | 0.164 | 1.1 | 1.13 | 1.08 | 0.978 | 0.731 | 0.982 | 0.809 | 0.876 | 0.593 | 0.298 |
| NCI-H1975 | 0.707 | 0.723 | 0.706 | 0.448 | 0.216 | 0.362 | 0.347 | 0.348 | 0.257 | 0.188 | 0.534 | 0.62 | 0.641 | 0.662 | 0.485 | 0.393 | 0.279 | 0.348 | 0.212 | 0.22 |
| NCI-H1993 | 1.08 | 1.13 | 1.23 | 0.895 | 0.794 | 0.416 | 0.487 | 0.473 | 0.525 | 0.554 | 0.691 | 0.644 | 0.671 | 0.72 | 0.688 | 0.743 | 0.851 | 1.34 | 0.847 | 0.497 |
